Laboratory results taken from patent publication US6414145B1, “Imidazolyl compounds as inhibitors of farnesyl-protein tranferase” (Zeneca Limited, priority 1997, dated 2002).

Columns and labels:
[1] = biological target: T1, Farnesyl protein transferase (FPT) (Homo sapiens, UniProt P49354+P49356); assay: Farnesyl protein transferase (FPT) inhibition, tritiated farnesyl pyrophosphate incorporation into Kras (CVIM); assay type: biochemical; conditions: FPT partially purified from human placenta; 300 nM tritiated farnesyl pyrophosphate, 120 nM ras-CVIM, 20 minutes at 37°
T1 construct: partially purified from human placenta by ammonium sulphate fractionation; from tissue; host or cells: human placenta
Experimental: Biological activity was tested as follows. Farnesyl protein transferase (FPT) was partially purified from human placenta by ammonium sulphate fractionation followed by a single Q-Sepharose™ (Pharmacia, Inc) anion exchange chromatography essentially as described by Ray and Lopez-Belmonte (Ray K P and Lopez-Belmonte J (1992) Biochemical Society Transations 20 494-497). The substrate for FPT was Kras (CVIM C-terminal sequence). The cDNA for oncogenic va112 variant of human c-Ki-ras-2 4B was obtained from the plasmid pSW11-1 (ATCC). This was then subcloned into the polylinker of a suitable expression vector e.g. pIC147, The Kras was obtained after expression in the E. coli strain, BL21. The expression and purification of c-KI-ras-2 4B and the val12 variant in E. coli has also been reported by Lowe et al (Lowe P N et al. J. Biol. Chem. (1991) 266 1672-1678).
Incubations with enzyme contained 300 nM tritiated farnesyl pyrophosphate (DuPont/New England Nuclear), 120 nM ras-CVIM, 50 mM Tris HCl pH 8.0, 5 mM MgCl2, 10 μM ZnCl2, 5 mM dithiotheitol and compounds were added at appropriate concentrations in DMSO (3% final concentration in test and vehicle control). […] Precipitated protein was then collected onto glass fibre filter mats (B) using a Tomtec™ cell harvester and tritiated label was measured in a Wallac™ 1204 Betaplate scintillation counter.

SMILES	melting point	IC50 [1]
CSCC[C@H](NC(=O)c1cccc(/C=C(\Cn2ccnc2)c2ccc(F)cc2)c1)C(=O)O [Example 3, (2S)-2-{3-[(Z)-2-(4-fluorophenyl)-3-(imidazol-1-yl)-prop-1-enyl]-benzamido}-4-methylsulfanylbutyric acid]	98 to 100 °C	
CSCC[C@H](NC(=O)c1ccc(/C=C(\c2ccccc2)C(C)n2ccnc2)cc1)C(=O)O (stereo partly drawn) [Example 6, (2S)-2-{4-[(E)-3-(imidazol-1-yl)-3-methyl-2-phenyl-prop-1-enyl]-benzamido}-4-methylsulfanylbutyric acid]		~0.15 µM
CSCC[C@H](NC(=O)c1ccc(/C=C(/Cn2ccnc2)c2ccc(F)cc2)cc1)C(=O)O [Example 12, (2S)-2-{4-[(E)-2-(4-Fluorophenyl)-3-(imidazol-1-yl)-prop-1-en-1-yl]benzamido}-4-methylsulfanylbutyric acid]	106 °C	
